Reference: article PMC8372979 (Journal of medicinal chemistry, 2020)

What was measured:
Caco-2 cells = experiment: Caco-2 permeability; format: in vitro ADME
CYP3A4 = CYP3A4 induction; format: in vitro ADME; conditions: in words
[1] = Pharmacokinetics in female NMRI mice; format: in vivo, mouse
[2] = system: Bloodstream Trypanosoma brucei brucei Lister 427 (STIB 795); experiment: Growth inhibition assay for T. brucei brucei; format: cell-based; conditions: pEC50=−logEC50; 72 h, resazurin

Cn1nccc1Nc1nc(NCC(F)(F)F)c2nc[nH]c2n1 [Compound 4aa, N^2-(1-methyl-1H-pyrazol-5-yl)-N^6-(2,2,2-trifluoroethyl)-9H-purine-2,6-diamine]
A-B Permeability Ranking (Caco-2 cells; Caco-2): Higher | Caco-2 efflux (Caco-2 cells; in words): rapidly effluxed | Caco-2 permeability (Caco-2 cells; in words): Permeable | CYP3A4 Liability (induction) (CYP3A4): does not have CYP3A4 induction liability | Cmax ([1]; female, NMRI, mouse, in vivo, ip, 10 mg/kg, Mean Cmax ± SD, non-infected female NMRI mice, 10 mg/kg ip, without ABT-pretreatment, blood): 3670 ± 922 ng/mL | Mean tmax ([1]; infected female NMRI mice, 30 mg/kg ip + ABT, day 1, blood): 30 to 120 min

N^6-(tert-butyl)-N^2-(thiophen-3-yl)-9H-purine-2,6-diamine [Compound 5r]
T. brucei pEC50 [2]: 7.1
